Source: the C3SDB collision cross section collection
Several values for one entry are separate records, joined by “and”; a condition that tells them apart may be missing. Identical values can stand only once.

Legend:
[1] = instrument: DT, single field, calibrated with Agilent tune mix (Agilent)
[2] = instrument: TW, calibrated with polyalanine and drug standards
[3] = instrument: DT, single field, calibrated with ESI Low Concentration Tuning Mix (Agilent)

O=CNc1ccccc1C(=O)O [Formylanthranilic acid]
collision cross section (N2) ([1]; [M+H-H2O]+): 125.7 Å²
collision cross section (N2) ([1]; [M-H]-): 127.28 Å²

CC(C)(COP(=O)(O)OP(=O)(O)OC[C@H]1O[C@@H](n2cnc3c(N)ncnc32)[C@H](O)[C@@H]1OP(=O)(O)O)[C@@H](O)C(=O)NCCC(=O)NCCSC(=O)CCCC(=O)O [Glutaryl-CoA]
collision cross section (N2) ([1]; [M+H]+): 260.5 Å²
collision cross section (N2) ([1]; [M-H]-): 252.39 Å²

N[C@H]1C(O)O[C@H](COP(=O)(O)O)[C@@H](O)[C@@H]1O (stereo partly drawn) [D-glucosamine 6-phosphate]
collision cross section (N2) ([1]; [M+Na]+): 156.6 Å²

O=C(O)CCCC(=O)O [Glutaric acid]
collision cross section (N2) ([1]; [M-H]-): 120.08 Å²

Nc1ccc(C(=O)NCC(=O)O)cc1 [Aminohippuric acid]
collision cross section (N2) ([1]; [M+Na]+): 153.7 Å²
collision cross section (N2) ([1]; [M-H]-): 147.55 Å²

C[C@H](CCC(=O)O)[C@H]1CC[C@H]2[C@@H]3CC[C@@H]4C[C@H](O)CC[C@]4(C)[C@H]3C[C@H](O)[C@]12C [Deoxycholic acid]
collision cross section (N2) ([1]; [M-H]-): 200.7 Å²

N[C@@H](CCOP(=O)(O)O)C(=O)O [O-Phospho-L-homoserine]
collision cross section (N2) ([1]; [M+Na]+): 141.6 Å²

CN(C)CCc1ccc(O)cc1 [Hordenine]
collision cross section (N2) ([1]; [M+H]+): 137.8 Å²
collision cross section (N2) ([1]; [M-H]-): 143.21 Å²

CCCCCC(=O)O [Caproic acid]
collision cross section (N2) ([1]; [M-H]-): 128.54 Å²

O=P(O)(O)OC[C@H]1OC(O)[C@@H](O)[C@@H](O)[C@@H]1O (stereo not given in full) [Mannose-6-phosphate]
collision cross section (N2) ([1]; [M+Na]+): 155.8 Å²

NC(=O)CCCCC1CCSS1 (stereo not given) [LIPOAMIDE]
collision cross section (N2) ([2]; [M+H]+): 139.3 Å²
collision cross section (N2) ([3]; [M+Na]+): 150.4 Å²

CC(=O)N1CCC[C@H]1C(=O)O [N-ACETYLPROLINE]
collision cross section (N2) ([2]; [M+Na]+): 136.9 Å²
collision cross section (N2) ([3]; [M+Na]+): 140.3 Å²
collision cross section (N2) ([3]; [M-H]-): 133.7 Å²

CCCCCCSC[C@H](NC(=O)CC[C@H](N)C(=O)O)C(=O)NCC(=O)O [S-HEXYL-GLUTATHIONE]
collision cross section (N2) ([3]; [M+H]+): 200.5 Å²
collision cross section (N2) ([3]; [M+Na-2H]-): 192.4 Å²
collision cross section (N2) ([3]; [M+Na]+): 200.9 Å²
collision cross section (N2) ([3]; [M-H]-): 189 Å²

O=C(O)CCCCCCCCC(=O)O [SEBACATE]
collision cross section (N2) ([3]; [M+Na-2H]-): 146 Å²
collision cross section (N2) ([3]; [M+Na]+): 152.7 Å²

CC(=O)N[C@@H]1[C@@H](O)[C@H](O)[C@@H](CO)O[C@H]1N [2-ACETAMIDO-2-DEOXY-BETA-D-GLUCOSYLAMINE]
collision cross section (N2) ([3]; [M+Na]+): 149.1 Å² and 157.8 Å²
collision cross section (N2) ([3]; [M-H]-): 155.2 Å²

O=C1O[C@H]([C@@H](O)CO)[C@H](O)[C@@H]1O [L-GULONOLACTONE]
collision cross section (N2) ([3]; [M+H2O-H]-): 133.5 Å²
collision cross section (N2) ([3]; [M+Na]+): 140.8 Å²
collision cross section (N2) ([3]; [M-H]-): 129.6 Å²

NCCC[C@@H](N)C(=O)O [D-ORNITHINE]
collision cross section (N2) ([3]; [M+H]+): 128.1 Å²
collision cross section (N2) ([3]; [M-H]-): 128.3 Å²

NC(CS(=O)O)C(=O)O (stereo not given) [3-SULFINOALANINE]
collision cross section (N2) ([3]; [M+H]+): 133.7 Å²

CC(=O)NCCCCN [N-ACETYLPUTRESCINE]
collision cross section (N2) ([3]; [M+H]+): 128.6 Å²
collision cross section (N2) ([3]; [M+Na]+): 134.5 Å²

C[Se]CCC(N)C(=O)O (stereo not given) [SELENOMETHIONINE]
collision cross section (N2) ([3]; [M+H]+): 135.2 Å²
collision cross section (N2) ([3]; [M+Na]+): 138.1 Å²
collision cross section (N2) ([3]; [M-H]-): 149.9 Å²

Cc1cc2nc3[nH]c(=O)[nH]c(=O)c3nc2cc1C [LUMICHROME]
collision cross section (N2) ([3]; [M+H20-H]-): 160.2 Å²
collision cross section (N2) ([3]; [M+H]+): 153.1 Å²
collision cross section (N2) ([3]; [M+Na]+): 167.7 Å²
collision cross section (N2) ([3]; [M-H]-): 155.1 Å²

NC(=O)c1ccc[n+]([C@@H]2O[C@H](COP(=O)([O-])OP(=O)(O)OC[C@H]3O[C@@H](n4cnc5c(N)ncnc54)[C@H](O)[C@@H]3O)[C@@H](O)[C@H]2O)c1 [BETA-NICOTINAMIDE ADENINE DINUCLEOTIDE]
collision cross section (N2) ([3]; [M+H]+): 227.5 Å²
collision cross section (N2) ([3]; [M+Na-2H]-): 230.8 Å²
collision cross section (N2) ([3]; [M+Na]+): 222.7 Å²
collision cross section (N2) ([3]; [M-H]-): 223.8 Å²

OCC1(O)OC[C@@H](O)[C@@H](O)[C@@H]1O (stereo not given in full) [FRUCTOSE]
collision cross section (N2) ([3]; [M+Na]+): 141.5 Å²

N[C@@H](C(=O)O)[C@@H](O)[C@H](O)[C@H](O)CO [GLUCOSAMINATE]
collision cross section (N2) ([3]; [M+H]+): 141.8 Å²
collision cross section (N2) ([3]; [M+Na]+): 146.5 Å²
collision cross section (N2) ([3]; [M-H]-): 135.7 Å²
